Experimental data taken from patent US8778926B2, “Compounds, pharmaceutical compositions and uses thereof” (Boehringer Ingelheim International GmbH, priority 2011, dated 2014).

biological target: T1, human GPR119 (Homo sapiens, UniProt Q8TDV5); assay: AlphaScreen cAMP assay, activation of GPR119 in Min-6/hGPR119 cells; format: cell-based; details: MIN6 cells stably transfected with human GPR119; intracellular cAMP; 45 minutes incubation at room temperature
T1 construct: expression vector for human GPR119 cDNA (Acc. No. NP_848566); expressed in transfected cells
T1 sequence (Q8TDV5 1-335): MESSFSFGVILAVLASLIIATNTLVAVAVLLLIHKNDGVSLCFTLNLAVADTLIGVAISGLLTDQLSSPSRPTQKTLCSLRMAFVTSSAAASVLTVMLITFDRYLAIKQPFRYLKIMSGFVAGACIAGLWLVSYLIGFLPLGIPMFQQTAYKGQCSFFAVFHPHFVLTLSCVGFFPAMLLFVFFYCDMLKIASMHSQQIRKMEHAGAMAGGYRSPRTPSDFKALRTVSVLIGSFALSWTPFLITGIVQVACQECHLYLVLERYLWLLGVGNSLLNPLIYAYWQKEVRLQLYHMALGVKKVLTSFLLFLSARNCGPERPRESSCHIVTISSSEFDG
Method: The compounds of formula I according to the invention modulate the activity of the G-protein-coupled receptor GPR119. The effect of the compounds on the activation of GPR119 and on the stimulation of intracellular cAMP concentration is determined using the AlphaScreen cAMP Assay Kit (Cat. No. #6760625R) made by PerkinElmer.
MIN6 cells [Miyazaki J et al. Endocrinology. 1990 July; 127(1):126-32] are stably transfected with an expression vector for human GPR119 cDNA (Acc. No. NP_848566). Min-6/hGPR119 cells are cultured in DMEM, 10% FBS, 500 μM β-mercaptoethanol, 0.3 mg/mL Geniticin, 2 mM GlutaMAX at 37° C. 5% CO2. For the assay, the cells are seeded in Optiplates (white, 384-well, 160 W— barcoded, TC, sterile with lid, Cat. No. #6007688 (Perkin Elmer); 10000 cells/well; 50 μl). The plates covered with lids are then incubated for 24 hours at 37° C./5% CO2. After the medium is aspirated from the wells completely, 10 μl of the test compound are added, the compounds are diluted using stimulating buffer (140 mM NaCl, 3.6 mM KCl, 0.5 mM NaH2PO4, 0.5 mM MgSO4, 1.5 mM CaCl2, 10 mM Hepes, 5 mM NaHCO3; pH 7.4. 0.5 mM IBMX and 0.1% BSA, the final DMSO concentration is 1%). After 45 minutes incubation at room temperature (approx. 20° C.), the cAMP concentrations are determined using the AlphaScreen cAMP Assay Kit (Cat. No. #6760625R from PerkinElmer).

Point of comparison: `CCc1cnc(N2CCC(C3Cc4cc(-c5ccc(C(=O)NCCC(C)(C)O)cc5)ccc4O3)CC2)nc1` (stereo not shown) [Example 75], EC50 81 nM. Against it:
- Cc1cnc(N2CCC([C@]3(C)Cc4cc(C5=CCN(S(C)(=O)=O)CC5)ncc4O3)CC2)nc1 (single isomer, unassigned) [Example 41] — 14-fold lower, 6 nM
- CCc1cnc(N2CCC(C3Cc4cc(-c5ccc(S(C)(=O)=O)cc5)ncc4O3)CC2)cn1 (stereo not shown) [Example 11, 2-[1-(5-Ethyl-pyrazin-2-yl)-piperidin-4-yl]-5-(4-methanesulfonyl-phenyl)-2,3-dihydro-furo[2,3-c]pyridine] — within 1.5-fold, 59 nM
- CC(C)c1noc(N2CCC([C@@H]3Cc4cc(C5=CCN(S(C)(=O)=O)CC5)ncc4O3)CC2)n1 (single isomer, unassigned) [Example 55] — 5.1-fold lower, 16 nM
- C[C@@]1(C2CCN(c3ccc(C(F)(F)F)cn3)CC2)Cc2cc(C3=CCN(S(C)(=O)=O)CC3)ncc2O1 (single isomer, unassigned) [Example 37] — 14-fold lower, 6 nM
- C[C@@]1(C2CCN(c3ncc(C(F)(F)F)cn3)CC2)Cc2cc(C3=CCN(S(C)(=O)=O)CC3)ncc2O1 (single isomer, unassigned) [Example 35] — 27-fold lower, 3 nM
- CS(=O)(=O)N1CC=C(c2cc3c(cn2)O[C@@H](C2CCN(c4nnc(C(F)(F)F)s4)CC2)C3)CC1 (single isomer, unassigned) [Example 81] — 8.1-fold lower, 10 nM
- CC(C)c1nc(N2CCC(C3Cc4cc(-c5ccc(S(C)(=O)=O)cc5)ncc4O3)CC2)no1 (stereo not shown) [Example 8, 2-[1-(5-Isopropyl-[1,2,4]oxadiazol-3-yl)-piperidin-4-yl]-5-(4-methanesulfonyl-phenyl)-2,3-dihydro-furo[2,3-c]pyridine] — 7.4-fold lower, 11 nM
- CC(C)c1nc(N2CCC([C@@H]3Cc4cc(C5=CCN(S(C)(=O)=O)CC5)ncc4O3)CC2)no1 (single isomer, unassigned) [Example 46] — 4.5-fold lower, 18 nM
- CCc1cnc(N2CCC(C3Cc4cc(-c5ccc(C(=O)N6CCOCC6)cc5)ccc4O3)CC2)nc1 (stereo not shown) [Example 60] — 7.4-fold lower, 11 nM
- CS(=O)(=O)N1CC=C(c2cc3c(cn2)O[C@@H](C2CCN(c4ncc(Cl)cn4)CC2)C3)CC1 (single isomer, unassigned) [Example 83] — 27-fold lower, 3 nM
- CCc1cnc(N2CCC([C@H]3Cc4cc(-c5ccc(S(C)(=O)=O)cc5)ncc4O3)CC2)nc1 (single isomer, unassigned) [Example 85] — 12-fold lower, 7 nM
- C[C@]1(C2CCN(c3ncc(Cl)cn3)CC2)Cc2cc(C3=CCN(S(C)(=O)=O)CC3)ncc2O1 (single isomer, unassigned) [Example 88] — within 1.5-fold, 59 nM
- CC(C)(C)c1noc(N2CCC(C3Cc4cc(C5=CCN(S(C)(=O)=O)CC5)ncc4O3)CC2)n1 (stereo not shown) [Example 34, 2-[1-(3-tert-Butyl-[1,2,4]oxadiazol-5-yl)-piperidin-4-yl]-5-(1-methanesulfonyl-1,2,3,6-tetrahydro-pyridin-4-yl)-2,3-dihydro-furo[2,3-c]pyridine] — 4.5-fold lower, 18 nM
- CCc1cnc(N2CCC([C@]3(C)Cc4cc(C5=CCN(S(C)(=O)=O)CC5)ncc4O3)CC2)nc1 (single isomer, unassigned) [Example 36] — 16-fold lower, 5 nM
- CC(C)(C)c1noc(N2CCC([C@]3(C)Cc4cc(-c5ccc(S(C)(=O)=O)cc5)ncc4O3)CC2)n1 (single isomer, unassigned) [Example 29] — 1.6-fold lower, 51 nM
- CC(C)c1noc(N2CCC(C3Cc4cc(C5=CCN(S(C)(=O)=O)CC5)ncc4O3)CC2)n1 (stereo not shown) [Example 20, 2-[1-(3-Isopropyl-[1,2,4]oxadiazol-5-yl)-piperidin-4-yl]-5-(1-methanesulfonyl-1,2,3,6-tetrahydro-pyridin-4-yl)-2,3-dihydro-furo[2,3-c]pyridine] — 5.1-fold lower, 16 nM
- CCc1cnc(N2CCC(C3Cc4cc(-c5ccc(C(=O)NCC(C)O)cc5)ccc4O3)CC2)nc1 (stereo not shown) [Example 74] — 1.6-fold lower, 52 nM
- CS(=O)(=O)c1ccc(-c2cc3c(cn2)O[C@@H](C2CCN(c4ncc(C5CC5)cn4)CC2)C3)cc1 (single isomer, unassigned) [Example 93] — 8.1-fold lower, 10 nM
- CC1(C2CCN(c3nnc(C(F)(F)F)s3)CC2)Cc2cc(C3=CCN(S(C)(=O)=O)CC3)ncc2O1 (single isomer, unassigned) [Example 48, 5-(1-Methanesulfonyl-1,2,3,6-tetrahydro-pyridin-4-yl)-2-methyl-2-[1-(5-trifluoromethyl-[1,3,4]thiadiazol-2-yl)-piperidin-4-yl]-2,3-dihydro-furo[2,3-c]pyridine] — 6.8-fold lower, 12 nM
- CC(C)c1noc(N2CCC(C3Cc4cc(-c5ccc(CS(C)(=O)=O)cc5F)ncc4O3)CC2)n1 (stereo not shown) [Example 21, 5-(2-Fluoro-4-methanesulfonylmethyl-phenyl)-2-[1-(3-isopropyl-[1,2,4]oxadiazol-5-yl)-piperidin-4-yl]-2,3-dihydro-furo[2,3-c]pyridine] — 2.9-fold lower, 28 nM
- CC(C)c1noc(N2CCC([C@]3(C)Cc4cc(-c5ccc(S(C)(=O)=O)cc5)ncc4O3)CC2)n1 (single isomer, unassigned) [Example 26] — 9-fold lower, 9 nM
- CC(C)(C)c1nc(N2CCC([C@H]3Cc4cc(C5=CCN(S(C)(=O)=O)CC5)ncc4O3)CC2)no1 (single isomer, unassigned) [Example 50] — 16-fold lower, 5 nM
- CCc1cnc(N2CCC(C3Cc4cc(-c5ccc(C(=O)N(C)CC#N)cc5)ccc4O3)CC2)nc1 (stereo not shown) [Example 71] — 5.1-fold lower, 16 nM
- CS(=O)(=O)N1CC=C(c2cc3c(cn2)O[C@@H](C2CCN(c4ncc(C(F)(F)F)cn4)CC2)C3)CC1 (single isomer, unassigned) [Example 79] — 27-fold lower, 3 nM
- CCc1cnc(N2CCC(C3Cc4cc(-c5ccc(C(=O)N6CC(OC)C6)cc5)ccc4O3)CC2)nc1 (stereo not shown) [Example 76] — within 1.5-fold, 59 nM
- CCc1cnc(N2CCC(C3Cc4cc(-c5ccc(C(=O)NCC#N)cc5)ccc4O3)CC2)nc1 (stereo not shown) [Example 67] — 1.7-fold higher, 141 nM
- CCc1cnc(N2CCC(C3Cc4cc(-c5ccc(C(=O)NCC6CCCO6)cc5)ccc4O3)CC2)nc1 (stereo not shown) [Example 72] — 6.8-fold lower, 12 nM
- CCc1cnc(N2CCC(C3Cc4cc(-c5ccc(C(=O)N6CCC(C)(O)C6)cc5)ccc4O3)CC2)nc1 (stereo not shown) [Example 68] — within 1.5-fold, 60 nM
- CCCc1nc(N2CCC(C3Cc4cc(-c5ccc(CS(C)(=O)=O)cc5F)ncc4O3)CC2)no1 (stereo not shown) [Example 25, 5-(2-Fluoro-4-methanesulfonylmethyl-phenyl)-2-[1-(5-propyl-[1,2,4]oxadiazol-3-yl)-piperidin-4-yl]-2,3-dihydro-furo[2,3-c]pyridine] — within 1.5-fold, 62 nM
- CS(=O)(=O)N1CC=C(c2cc3c(cn2)O[C@@H](C2CCN(c4ccc(C(F)(F)F)cn4)CC2)C3)CC1 (single isomer, unassigned) [Example 82] — 27-fold lower, 3 nM
- CCc1cnc(N2CCC(C3Cc4cc(-c5ccc(C(=O)N(C)CCO)cc5)ccc4O3)CC2)nc1 (stereo not shown) [Example 78] — 2.1-fold lower, 39 nM
- CCCc1noc(N2CCC(C3Cc4cc(-c5ccc(CS(C)(=O)=O)cc5)ncc4O3)CC2)n1 (stereo not shown) [Example 15, 5-(4-Methanesulfonylmethyl-phenyl)-2-[1-(3-propyl-[1,2,4]oxadiazol-5-yl)-piperidin-4-yl]-2,3-dihydro-furo[2,3-c]pyridine] — 2.1-fold lower, 38 nM
- CCc1cnc(N2CCC(C3Cc4cc(-c5ccc(C(=O)N(C)CCOC)cc5)ccc4O3)CC2)nc1 (stereo not shown) [Example 62] — 4-fold lower, 20 nM
- CC(C)c1noc(N2CCC(C3Cc4cc(-c5ccc(S(C)(=O)=O)cc5)ncc4O3)CC2)n1 (stereo not shown) [Example 6, 2-[1-(3-Isopropyl-[1,2,4]oxadiazol-5-yl)-piperidin-4-yl]-5-(4-methanesulfonyl-phenyl)-2,3-dihydro-furo[2,3-c]pyridine] — 2.5-fold lower, 32 nM
- CCc1cnc(N2CCC(C3Cc4cc(-c5ccc(C(=O)NCc6ccccn6)cc5)ccc4O3)CC2)nc1 (stereo not shown) [Example 73] — 4.3-fold lower, 19 nM
- CC(C)(C)c1nc(N2CCC([C@@H]3Cc4cc(C5=CCN(S(C)(=O)=O)CC5)ncc4O3)CC2)no1 (single isomer, unassigned) [Example 51] — 12-fold lower, 7 nM
- CCc1cnc(N2CCC([C@@H]3Cc4cc(C5=CCN(S(C)(=O)=O)CC5)ncc4O3)CC2)nc1 (single isomer, unassigned) [Example 30] — 20-fold lower, 4 nM
- CCCc1noc(N2CCC(C3Cc4cc(-c5ccc(S(C)(=O)=O)cc5)ncc4O3)CC2)n1 (stereo not shown) [Example 7, 5-(4-Methanesulfonyl-phenyl)-2-[1-(3-propyl-[1,2,4]oxadiazol-5-yl)-piperidin-4-yl]-2,3-dihydro-furo[2,3-c]pyridine] — 2.3-fold lower, 35 nM
- CCc1cnc(N2CCC(C3Cc4cc(-c5ccc(CS(C)(=O)=O)cc5)ncc4O3)CC2)nc1 (stereo not shown) [Example 12, 2-[1-(5-Ethyl-pyrimidin-2-yl)-piperidin-4-yl]-5-(4-methanesulfonylmethyl-phenyl)-2,3-dihydro-furo[2,3-c]pyridine] — 3.7-fold lower, 22 nM
